# Source: patent publication US20110077232A1, “COMPOSITIONS COMPRISING ATORVASTATIN 4-(NITROOXY) BUTYL ESTER AND A HYPOLIPIDEMIC DRUG” (Nicox S.A., priority 2008, published 2011)
# Key:
# female APOE*3Leiden mice [1] = experiment: Undiseased segments in the aortic root, Method 2; type: in vivo; details: 12 weeks; for Undiseased segments (% of total): aortic root, n=12 per group, means±SD
# Description: (§1) Fifty-six female APOE*3Leiden mice (age 11-13 weeks, body weight 20-25 gram) were put on a semi-synthetic Western-type diet for 4 weeks and were subsequently treated with or without NO-atorvastatin (13.0 mg/kg b.w. or 0.0108% w/w), ezetimibe (0.1 mg/kg b.w. or 0.000083% w/w until week 6 and 0.3 mg/kg b.w. or 0.000249% w/w from week 6-12) and a combination of NO-atorvastatin with ezetimibe for 12 weeks. At time point t=0, t=4, t=8 and t=12 blood was collected for the measurement of the indicated lipid and inflammation parameters and at sacrifice serum, heart, thoracic aorta and liver were collected. The number of lesions and the number of undiseased segments in the aortic root were measured.
# The number of undiseased segments in the aortic root was counted individually (n=12 per group) and calculated as percentage of all quantified segments. Values are percentages (means±SD).
# female APOE*3Leiden mice [2] = experiment: Progression of atherosclerosis (overall, lesion area), Method 2; type: in vivo; details: 12 weeks; result in words
# Description: as §1
# female APOE*3Leiden mice [3] = experiment: Number of lesions in the aortic root, Method 2; type: in vivo; details: for influence on number of lesions as compared to the control group: 12 weeks, result in words; for Lesion number per cross section: t = 12 weeks, NO-atorvastatin 13.0 mg/kg, ezetimibe 0.1 then 0.3 mg/kg, means±SD
# Description: as §1
# The number of lesions per cross section is presented as absolute values (means±SD).
# female APOE*3Leiden mice [4] = experiment: Total plasma cholesterol, Method 1; type: in vivo; design: decreased plasma cholesterol levels (vs control): concentration or dose not given beside the values; details: for Cholesterol: means ± SD
# Description: Total plasma cholesterol was determined using kit “Chol R1” is from Roche.
# female APOE*3Leiden mice [5] = experiment: Plasma ALT levels (liver function), Method 1; type: in vivo; details: for ALT: pooled plasma
# Description: Alanine transaminase (ALT), as measure for liver function, was measured in pooled samples using the spectrophotometric assay of the Boehringer Reflotron system.
# female APOE*3Leiden mice [6] = experiment: Plasma triglycerides, Method 1; type: in vivo; details: for Triglycerides: means ± SD
# Description: (§2) At the end of each treatment period blood was collected for the indicated lipid and inflammation parameters and at sacrifice livers and plasma/serum were collected.
# Triglycerides level was determined using kit “Triglycerides GPO-PAP” from Roche.
# female APOE*3Leiden mice [7] = details: t = 8 weeks; means ± SD, n ≧ 9 mice per group
# Description: as §2
# P-Selectin, adhesion molecule as inflammation marker, was determined using commercially available Elisa kit.
# [8] = t = 0 (before treatment), n ≧ 9 mice per group
# [9] = t = 4 weeks, NO-atorvastatin 4.3 mg/kg, ezetimibe 0.1 mg/kg, fenofibrate 1 mg/kg
# [10] = t = 8 weeks, NO-atorvastatin 13 mg/kg, ezetimibe 0.1 mg/kg, fenofibrate 3 mg/kg from week 4
# [11] = t = 4 weeks, NO-atorvastatin 4.3 mg/kg, ezetimibe 0.1 mg/kg, fenofibrate 1 mg/kg in diet
# [12] = t = 4 weeks, NO-atorvastatin 4.3 mg/kg, fenofibrate 1 mg/kg
# [13] = t = 8 weeks, NO-atorvastatin 13 mg/kg, fenofibrate 3 mg/kg from week 4
structure (smiles),measurement,setting,value
"O=C1[C@H](CC[C@H](O)c2ccc(F)cc2)[C@@H](c2ccc(O)cc2)N1c1ccc(F)cc1 [Ezetimibe, ezetimibe]",effect on number of undiseased segments,female APOE*3Leiden mice [1]; result in words,did not affect the number of undiseased segments
same,Undiseased segments (% of total),female APOE*3Leiden mice [1],16.0 ± 14.8 % of total
same,effect on progression of atherosclerosis,female APOE*3Leiden mice [2],did not affect the progression of atherosclerosis
same,influence on number of lesions as compared to the control group,female APOE*3Leiden mice [3],did not influence the number of lesions
same,Lesion number per cross section,female APOE*3Leiden mice [3],3.5 ± 1.0
same,decreased plasma cholesterol levels (vs control),female APOE*3Leiden mice [4]; after 4 weeks of treatment,−25%
same,decreased plasma cholesterol levels (vs control),female APOE*3Leiden mice [4]; after 8 weeks of treatment,−35%
same,Cholesterol,female APOE*3Leiden mice [4]; [8],18.6 ± 2.6 mmol/L
same,Cholesterol,female APOE*3Leiden mice [4]; [9],16.8 ± 2.4 mmol/L
same,Cholesterol,female APOE*3Leiden mice [4]; [10],14.9 ± 3.2 mmol/L
same,ALT,female APOE*3Leiden mice [5]; [8],120 U/L
same,ALT,female APOE*3Leiden mice [5]; [11],92 U/L
same,ALT,female APOE*3Leiden mice [5]; [10],81 U/L
"CC(C)OC(=O)C(C)(C)Oc1ccc(C(=O)c2ccc(Cl)cc2)cc1 [Fenofibrate, fenofibrate]",Triglycerides,female APOE*3Leiden mice [6]; [8],2.6 ± 0.7 mmol/L
same,Triglycerides,female APOE*3Leiden mice [6]; [12],2.2 ± 0.5 mmol/L
same,Triglycerides,female APOE*3Leiden mice [6]; [13],1.6 ± 0.5 mmol/L
same,decrease of plasma triglycerides compared to the control group,female APOE*3Leiden mice [6]; t=8 weeks,41%
same,decreased plasma cholesterol levels (vs control),female APOE*3Leiden mice [4]; after 4 weeks of treatment,no effect
same,decreased plasma cholesterol levels (vs control),female APOE*3Leiden mice [4]; after 8 weeks of treatment,−28%
same,Cholesterol,female APOE*3Leiden mice [4]; [10],16.5 ± 2.2 mmol/L
same,increased ALT levels as compared to the control mice,female APOE*3Leiden mice [5]; t=4 weeks,+43%
same,increased ALT levels as compared to the control mice,female APOE*3Leiden mice [5]; t=8 weeks,+60%
"CC(C)c1c(C(=O)Nc2ccccc2)c(-c2ccccc2)c(-c2ccc(F)cc2)n1CC[C@@H](O)C[C@@H](O)CC(=O)OCCCCO[N+](=O)[O-] [NO-atorvastatin, atorvastatin 4-(nitrooxy) butyl ester]",Undiseased segments (% of total),female APOE*3Leiden mice [1],26.4 ± 15.0 % of total
same,effect on progression of atherosclerosis,female APOE*3Leiden mice [2],reduced atherosclerosis in lesion area
same,P-Selectin,female APOE*3Leiden mice [7],190 ± 23 ng/mL
same,influence on number of lesions as compared to the control group,female APOE*3Leiden mice [3],did not influence the number of lesions
same,Lesion number per cross section,female APOE*3Leiden mice [3],3.2 ± 0.7
same,Triglycerides,female APOE*3Leiden mice [6]; [8],2.7 ± 0.3 mmol/L
same,Triglycerides,female APOE*3Leiden mice [6]; [12],3.2 ± 0.7 mmol/L
same,Triglycerides,female APOE*3Leiden mice [6]; [13],2.7 ± 0.5 mmol/L
same,decreased plasma cholesterol levels (vs control),female APOE*3Leiden mice [4]; after 4 weeks of treatment,−21%
same,decreased plasma cholesterol levels (vs control),female APOE*3Leiden mice [4]; after 8 weeks of treatment,−34%
same,Cholesterol,female APOE*3Leiden mice [4]; [8],18.6 ± 2.8 mmol/L
same,Cholesterol,female APOE*3Leiden mice [4]; [9],17.7 ± 2.5 mmol/L
same,Cholesterol,female APOE*3Leiden mice [4]; [10],15.2 ± 3.0 mmol/L
same,ALT,female APOE*3Leiden mice [5]; [8],120 U/L
same,ALT,female APOE*3Leiden mice [5]; [11],114 U/L
same,ALT,female APOE*3Leiden mice [5]; [10],91 U/L
